Reference: PubChem BioAssay (NCI)
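Tested at 5 concentrations; 48 h exposure; 96-well plates; endpoints linearly interpolated, else capped at highest concentration. Here, GI50 denotes the concentration required for 50% inhibition of growth. TGI marks complete inhibition of growth.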

Legend:
Assay in all cases: NCI-60 cell line screen, 48 h
[1] = tested on: M14 melanoma
[2] = tested on: MDA-MB-435
[3] = tested on: SR leukemia
[4] = tested on: HCT-116 colon
[5] = tested on: HL-60(TB) leukemia
[6] = tested on: SK-MEL-5 melanoma
[7] = tested on: IGROV1 ovarian
[8] = tested on: EKVX NSCLC
[9] = tested on: TK-10 renal
[10] = tested on: OVCAR-5 ovarian
[11] = tested on: NCI-H23 lung
[12] = tested on: MDA-N
[13] = tested on: HCC-2998 colon
[14] = tested on: SNB-19 CNS
[15] = tested on: SK-MEL-28 melanoma
[16] = tested on: U251 CNS
[17] = tested on: A498 renal
[18] = tested on: K-562 leukemia
[19] = tested on: T-47D breast
[20] = tested on: SK-MEL-2 melanoma
[21] = tested on: A549 NSCLC
[22] = tested on: CAKI-1 renal
[23] = tested on: MOLT-4 leukemia
[24] = tested on: UO-31 renal
[25] = tested on: HS 578T breast
[26] = tested on: RPMI-8226 leukemia
[27] = tested on: OVCAR-8 ovarian
[28] = tested on: SF-539 CNS
[29] = tested on: HT29 colon
[30] = tested on: SN12C renal
[31] = tested on: BT-549 breast
[32] = tested on: LOX IMVI melanoma
[33] = tested on: SW-620 colon
[34] = tested on: PC-3 prostate
[35] = tested on: RXF 393 renal
[36] = tested on: SNB-75 CNS
[37] = tested on: 786-0 renal
[38] = tested on: SF-268 CNS
[39] = tested on: HCT-15 colon
[40] = tested on: COLO 205 colon
[41] = tested on: ACHN renal
[42] = tested on: UACC-257 melanoma
[43] = tested on: NCI/ADR-RES ovarian
[44] = tested on: CCRF-CEM leukemia
[45] = tested on: SK-OV-3 ovarian
[46] = tested on: OVCAR-3 ovarian
[47] = tested on: OVCAR-4 ovarian
[48] = tested on: MDA-MB-231 breast
[49] = tested on: NCI-H226 lung
[50] = tested on: NCI-H522 lung
[51] = tested on: KM12 colon
[52] = tested on: SF-295 CNS
[53] = tested on: NCI-H460 lung
[54] = tested on: HOP-92 NSCLC
[55] = tested on: UACC-62 melanoma
[56] = tested on: DU-145 prostate
[57] = tested on: HOP-62 NSCLC
[58] = tested on: MCF7 breast
[59] = tested on: MALME-3M melanoma

O=C(O)CSC(NC(=O)C(C(F)(F)F)C(F)(F)F)(C(F)(F)F)C(F)(F)F
TGI [1]: > 100 µM
TGI [2]: > 100 µM
TGI [3]: > 100 µM
TGI [4]: > 100 µM
TGI [5]: > 100 µM
TGI [6]: > 100 µM
TGI [7]: > 100 µM
TGI [8]: > 100 µM
TGI [9]: > 100 µM
TGI [10]: > 100 µM
TGI [11]: > 100 µM
TGI [12]: > 100 µM
TGI [13]: > 100 µM
TGI [14]: > 100 µM
TGI [15]: > 100 µM
TGI [16]: > 100 µM
TGI [17]: > 100 µM
TGI [18]: > 100 µM
TGI [19]: > 100 µM
TGI [20]: > 100 µM
TGI [21]: > 100 µM
TGI [22]: > 100 µM
TGI [23]: > 100 µM
TGI [24]: > 100 µM
TGI [25]: > 100 µM
TGI [26]: > 100 µM
TGI [27]: 83.3 µM
TGI [28]: > 100 µM
TGI [29]: > 100 µM
TGI [30]: > 100 µM
TGI [31]: > 100 µM
TGI [32]: > 100 µM
TGI [33]: > 100 µM
TGI [34]: > 100 µM
TGI [35]: > 100 µM
TGI [36]: > 100 µM
TGI [37]: > 100 µM
TGI [38]: > 100 µM
TGI [39]: > 100 µM
TGI [40]: > 100 µM
TGI [41]: > 100 µM
TGI [42]: > 100 µM
TGI [43]: > 100 µM
TGI [44]: > 100 µM
TGI [45]: > 100 µM

OCC(O)C(O)C(O)/C=N/Nc1nc(O)c(/C=C2\C=Nc3ccccc32)[nH]1 (stereo not given)
TGI [46]: > 100 µM
TGI [47]: > 100 µM
TGI [1]: > 100 µM
TGI [2]: > 100 µM
TGI [4]: > 100 µM
TGI [5]: > 100 µM
TGI [6]: > 100 µM
TGI [7]: > 100 µM
TGI [8]: > 100 µM
TGI [48]: > 100 µM
TGI [9]: > 100 µM
TGI [10]: > 100 µM
TGI [11]: > 100 µM
TGI [12]: > 100 µM
TGI [13]: > 100 µM
TGI [14]: > 100 µM
TGI [15]: > 100 µM
TGI [16]: > 100 µM
TGI [49]: > 100 µM
TGI [18]: > 100 µM
TGI [19]: > 100 µM
TGI [50]: > 100 µM
TGI [51]: > 100 µM
TGI [52]: > 100 µM
TGI [21]: > 100 µM
TGI [53]: > 100 µM
TGI [22]: > 100 µM
TGI [23]: > 100 µM
TGI [25]: > 100 µM
TGI [26]: > 100 µM
TGI [27]: > 100 µM
TGI [28]: > 100 µM
TGI [29]: > 100 µM
TGI [30]: > 100 µM
TGI [31]: > 100 µM
TGI [32]: > 100 µM
TGI [54]: > 100 µM
TGI [33]: > 100 µM
TGI [35]: > 100 µM
TGI [36]: > 100 µM
TGI [37]: > 100 µM
TGI [38]: > 100 µM
TGI [55]: > 100 µM
TGI [39]: > 100 µM
TGI [56]: > 100 µM
TGI [40]: > 100 µM
TGI [57]: > 100 µM
TGI [58]: > 100 µM
TGI [41]: > 100 µM
TGI [59]: > 100 µM
TGI [42]: > 100 µM
TGI [43]: > 100 µM
TGI [44]: > 100 µM
TGI [45]: > 100 µM

O=C(NCc1ccc(S(=O)(=O)c2cc(F)cc(F)c2)cc1)c1ccc2nccn2c1
GI50 [46]: 1.32 µM
TGI [46]: > 100 µM
GI50 [47]: 11.3 µM
TGI [47]: > 77.3 µM
GI50 [1]: < 0.0108 µM
TGI [1]: > 100 µM
GI50 [2]: 0.0508 µM
TGI [2]: > 100 µM
TGI [3]: > 100 µM
GI50 [4]: < 0.01 µM
TGI [4]: > 100 µM
GI50 [5]: > 40.2 µM
TGI [5]: > 100 µM
GI50 [6]: 2.22 µM
TGI [6]: > 100 µM
GI50 [7]: 12.1 µM
TGI [7]: > 80.4 µM
GI50 [8]: 23.3 µM
TGI [8]: > 100 µM
GI50 [48]: 20 µM
TGI [48]: > 100 µM
GI50 [9]: 36.3 µM
TGI [9]: > 62.9 µM
GI50 [10]: 0.331 µM
TGI [10]: > 100 µM
GI50 [11]: > 48.7 µM
TGI [11]: > 100 µM
GI50 [13]: 14.6 µM
TGI [13]: > 100 µM
GI50 [14]: 2.56 µM
TGI [14]: > 100 µM
GI50 [15]: > 39.8 µM
TGI [15]: 98.1 µM
GI50 [16]: 6.01 µM
TGI [16]: > 56.7 µM
GI50 [17]: > 28.4 µM
TGI [17]: > 86.8 µM
GI50 [49]: > 46 µM
TGI [49]: > 73.9 µM
GI50 [18]: 0.0103 µM
TGI [18]: > 100 µM
GI50 [19]: 11.7 µM
TGI [19]: > 100 µM
GI50 [50]: < 0.01 µM
TGI [50]: 43 µM
GI50 [20]: 20.1 µM
TGI [20]: > 74.9 µM
GI50 [51]: 0.328 µM
TGI [51]: > 100 µM
GI50 [52]: 15.8 µM
TGI [52]: > 95.3 µM
GI50 [21]: 9.59 µM
TGI [21]: > 100 µM
GI50 [53]: 0.514 µM
TGI [53]: > 100 µM
GI50 [22]: > 43.3 µM
TGI [22]: > 100 µM
GI50 [23]: > 27.2 µM
TGI [23]: > 100 µM
GI50 [24]: > 44.8 µM
TGI [24]: > 100 µM
GI50 [25]: 20.5 µM
TGI [25]: 80.1 µM
TGI [26]: > 100 µM
GI50 [27]: < 0.01 µM
TGI [27]: > 100 µM
GI50 [28]: < 0.01 µM
TGI [28]: > 42.9 µM
GI50 [29]: 0.0885 µM
TGI [29]: > 100 µM
GI50 [30]: < 0.01 µM
TGI [30]: > 100 µM
GI50 [31]: 0.296 µM
TGI [31]: 12.1 µM
GI50 [32]: > 33.7 µM
TGI [32]: > 66.8 µM
GI50 [54]: 22.5 µM
TGI [54]: > 100 µM
GI50 [33]: < 0.01 µM
TGI [33]: > 100 µM
TGI [34]: > 100 µM
GI50 [35]: > 44.8 µM
TGI [35]: > 72.4 µM
GI50 [36]: 15.3 µM
TGI [36]: 45.8 µM
GI50 [37]: 30.7 µM
TGI [37]: > 100 µM
GI50 [38]: 28.4 µM
TGI [38]: > 100 µM
GI50 [55]: > 51 µM
TGI [55]: > 100 µM
GI50 [39]: 0.0472 µM
TGI [39]: > 100 µM
GI50 [56]: 0.0773 µM
TGI [56]: > 100 µM
TGI [40]: > 100 µM
GI50 [57]: 23 µM
TGI [57]: 74 µM
GI50 [58]: 8.69 µM
TGI [58]: > 100 µM
GI50 [41]: 21.1 µM
TGI [41]: > 100 µM
GI50 [59]: > 41.6 µM
TGI [59]: > 65 µM
GI50 [42]: > 59.1 µM
TGI [42]: > 100 µM
GI50 [43]: 5.08 µM
TGI [43]: > 100 µM
TGI [44]: > 100 µM
GI50 [45]: 17.1 µM
TGI [45]: 60.6 µM
